Reference: PubChem BioAssay (NCI)
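Values below derive from 48-hour exposures of cells grown in 96-well plates, with endpoints linearly interpolated between the two concentrations bracketing the appropriate inhibition level. Definition used: TGI = concentration required for complete inhibition of growth.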

Columns and labels:
Test in all cases: NCI tumour cell line growth inhibition, 48 h
MALME-3M melanoma = test system: MALME-3M melanoma
MDA-MB-435 = test system: MDA-MB-435
DMS 114 small cell lung = test system: DMS 114 small cell lung
OVCAR-5 ovarian = test system: OVCAR-5 ovarian
SK-MEL-5 melanoma = test system: SK-MEL-5 melanoma
DU-145 prostate = test system: DU-145 prostate
HT29 colon = test system: HT29 colon
IGROV1 ovarian = test system: IGROV1 ovarian
TK-10 renal = test system: TK-10 renal
XF 498 CNS = test system: XF 498 CNS
LOX IMVI melanoma = test system: LOX IMVI melanoma
LXFL 529 NSCLC = test system: LXFL 529 NSCLC
SN12C renal = test system: SN12C renal
OVCAR-8 ovarian = test system: OVCAR-8 ovarian
CAKI-1 renal = test system: CAKI-1 renal
OVCAR-3 ovarian = test system: OVCAR-3 ovarian
OVCAR-4 ovarian = test system: OVCAR-4 ovarian
MCF7 breast = test system: MCF7 breast
SF-268 CNS = test system: SF-268 CNS
HL-60(TB) leukemia = test system: HL-60(TB) leukemia
SF-539 CNS = test system: SF-539 CNS
PC-3 prostate = test system: PC-3 prostate
KM20L2 colon = test system: KM20L2 colon
RPMI-8226 leukemia = test system: RPMI-8226 leukemia
COLO 205 colon = test system: COLO 205 colon
HCT-15 colon = test system: HCT-15 colon
HCT-116 colon = test system: HCT-116 colon
HOP-62 NSCLC = test system: HOP-62 NSCLC
HOP-92 NSCLC = test system: HOP-92 NSCLC
M19-MEL melanoma = test system: M19-MEL melanoma
BT-549 breast = test system: BT-549 breast
EKVX NSCLC = test system: EKVX NSCLC
CCRF-CEM leukemia = test system: CCRF-CEM leukemia
NCI-H23 lung = test system: NCI-H23 lung
SK-MEL-28 melanoma = test system: SK-MEL-28 melanoma
K-562 leukemia = test system: K-562 leukemia
DMS 273 small cell lung = test system: DMS 273 small cell lung
SW-620 colon = test system: SW-620 colon
NCI-H460 lung = test system: NCI-H460 lung
NCI/ADR-RES ovarian = test system: NCI/ADR-RES ovarian
HOP-18 NSCLC = test system: HOP-18 NSCLC
MDA-N = test system: MDA-N
SK-MEL-2 melanoma = test system: SK-MEL-2 melanoma
A498 renal = test system: A498 renal
SK-OV-3 ovarian = test system: SK-OV-3 ovarian
UO-31 renal = test system: UO-31 renal
HS 578T breast = test system: HS 578T breast
DLD-1 colon = test system: DLD-1 colon
SF-295 CNS = test system: SF-295 CNS
SNB-19 CNS = test system: SNB-19 CNS
RXF 393 renal = test system: RXF 393 renal
M14 melanoma = test system: M14 melanoma
NCI-H522 lung = test system: NCI-H522 lung
MDA-MB-231 breast = test system: MDA-MB-231 breast
A549 NSCLC = test system: A549 NSCLC
T-47D breast = test system: T-47D breast
MOLT-4 leukemia = test system: MOLT-4 leukemia
SR leukemia = test system: SR leukemia
KM12 colon = test system: KM12 colon
786-0 renal = test system: 786-0 renal
U251 CNS = test system: U251 CNS
HCC-2998 colon = test system: HCC-2998 colon
UACC-257 melanoma = test system: UACC-257 melanoma
ACHN renal = test system: ACHN renal
UACC-62 melanoma = test system: UACC-62 melanoma
NCI-H226 lung = test system: NCI-H226 lung
SNB-75 CNS = test system: SNB-75 CNS
RXF-631 renal = test system: RXF-631 renal

With `CCOC(=O)c1c(C)c(C)n2c1NC(=O)C2` the TGI (MALME-3M melanoma) was greater than 85.7 µM, the TGI (MDA-MB-435) was greater than 100 µM and the TGI (DMS 114 small cell lung) was greater than 100 µM. It also gave a TGI (OVCAR-5 ovarian) greater than 100 µM, a TGI (SK-MEL-5 melanoma) greater than 100 µM and a TGI (DU-145 prostate) of 64.3 µM. The TGI (HT29 colon) was greater than 100 µM, the TGI (IGROV1 ovarian) was greater than 100 µM and the TGI (TK-10 renal) was greater than 89.4 µM. The TGI (XF 498 CNS) was 61.1 µM, the TGI (LOX IMVI melanoma) was greater than 100 µM and the TGI (LXFL 529 NSCLC) was greater than 100 µM. For the same molecule, the TGI (SN12C renal) was greater than 100 µM, the TGI (OVCAR-8 ovarian) was greater than 100 µM and the TGI (CAKI-1 renal) was greater than 100 µM. It also gave a TGI (OVCAR-3 ovarian) greater than 100 µM, a TGI (OVCAR-4 ovarian) greater than 100 µM and a TGI (MCF7 breast) of 84 µM. For the same molecule, the TGI (SF-268 CNS) was greater than 100 µM, the TGI (HL-60(TB) leukemia) was greater than 100 µM and the TGI (SF-539 CNS) was greater than 100 µM. For the same molecule, the TGI (PC-3 prostate) was greater than 100 µM, the TGI (KM20L2 colon) was greater than 100 µM and the TGI (RPMI-8226 leukemia) was greater than 100 µM. It also gave a TGI (COLO 205 colon) greater than 100 µM, a TGI (HCT-15 colon) greater than 100 µM and a TGI (HCT-116 colon) greater than 100 µM. For the same molecule, the TGI (HOP-62 NSCLC) was greater than 100 µM, the TGI (HOP-92 NSCLC) was greater than 100 µM and the TGI (M19-MEL melanoma) was greater than 100 µM. The TGI (BT-549 breast) was greater than 100 µM, the TGI (EKVX NSCLC) was greater than 100 µM and the TGI (CCRF-CEM leukemia) was greater than 100 µM. For the same molecule, the TGI (NCI-H23 lung) was greater than 68.5 µM, the TGI (SK-MEL-28 melanoma) was greater than 100 µM and the TGI (K-562 leukemia) was greater than 100 µM. The TGI (DMS 273 small cell lung) was greater than 100 µM, the TGI (SW-620 colon) was greater than 100 µM and the TGI (NCI-H460 lung) was greater than 100 µM. The TGI (NCI/ADR-RES ovarian) was 81.5 µM, the TGI (HOP-18 NSCLC) was greater than 100 µM and the TGI (MDA-N) was greater than 100 µM. It also gave a TGI (SK-MEL-2 melanoma) greater than 100 µM, a TGI (A498 renal) greater than 100 µM and a TGI (SK-OV-3 ovarian) greater than 100 µM. The TGI (UO-31 renal) was greater than 100 µM, the TGI (HS 578T breast) was 70 µM and the TGI (DLD-1 colon) was greater than 100 µM. It also gave a TGI (SF-295 CNS) greater than 100 µM, a TGI (SNB-19 CNS) greater than 100 µM and a TGI (RXF 393 renal) greater than 78.2 µM. It also gave a TGI (M14 melanoma) greater than 100 µM, a TGI (NCI-H522 lung) greater than 68 µM and a TGI (MDA-MB-231 breast) greater than 100 µM. The TGI (A549 NSCLC) was greater than 100 µM, the TGI (T-47D breast) was 70.7 µM and the TGI (MOLT-4 leukemia) was greater than 100 µM. The TGI (SR leukemia) was greater than 100 µM, the TGI (KM12 colon) was greater than 100 µM and the TGI (786-0 renal) was 98.9 µM. The TGI (U251 CNS) was 97.7 µM, the TGI (HCC-2998 colon) was greater than 100 µM and the TGI (UACC-257 melanoma) was greater than 100 µM. It also gave a TGI (ACHN renal) greater than 100 µM, a TGI (UACC-62 melanoma) greater than 100 µM and a TGI (NCI-H226 lung) greater than 100 µM. For the same molecule, the TGI (SNB-75 CNS) was greater than 74.7 µM and the TGI (RXF-631 renal) was greater than 100 µM.
